One data set has as its system eye. The experiment in a line: Eye irritation tests (OECD and GHS). Format: in vivo. The note with it: OECD and GHS standards. An excerpt: In eye irritation tests, the product was classified as non-irritating according to OECD and GHS standards.
Another data set relates to skin. Description: Skin irritation tests (OECD and GHS). Format: in vivo. The note with it: OECD and GHS standards; non-irritating in 2 tests, one test mild. From the text: Two new batches of cocoyl glyceryl solketal were sent to confirm dermal irritation tests.

“Also recorded” adds a separate entry of the source.

On to Cocoyl glyceryl solketal, for which, in the data set on eye, the Eye irritation classification result was “non-irritating”. The Skin irritation classification entry in the data set on skin is listed as “non-irritating; also recorded: mild dermal irritation”.

The values above are taken from patent publication US20240225981A1, “Synthesized Molecule of Solketal Esters from Palm Kit Oil and Glycerin for Cosmetic and Agricultural Formulations” (BRASIL BIO FUELS S.A, priority 2023, published 2024).
